From patent publication US12162934B2, “Gremlin-1 antagonist for the prevention and treatment of cancer” (UCB BIOPHARMA SRL, priority 2018, dated 2024)

What was measured:
[1] = system: PC-3 prostate cancer cells; experiment: PC-3 prostate cancer model in NSG mice (BLI); format: in vivo, human; conditions: vs AbA33
Protocol: The PC-3 human prostate cancer cell line was obtained from ATCC (Manassas, VA, USA). The cell line expresses luciferase produced by retroviral expression of the SFG-NES-TGL vector (Ponomarev, V., et al. 2004). Cancer cells were cultured in RPMI1640 (Life Technologies, Australia) supplemented with 10% foetal bovine serum (FBS, Life Technologies, Australia), 100 IU/mL penicillin (Life Technologies, Australia), 100 μg/mL streptomycin (Life Technologies, Australia) and 25 mM HEPES (Life Technologies, Australia) at 37° C. in a 5% CO2 humidified atmosphere.
5-week old NOD.Cg-Prkd^scid Il2rg^tm1Wjl/SzJ (NSG) immunocompromised mice were subcutaneously (s.c) administered two 30 mg/kg doses of anti-Grem1 antibody (UCB6114) or IgG control, AbA33, the week prior to tumour cell inoculation. 5×10^5 luciferase expressing PC-3 […] prostate cancer cells were injected systemically via the caudal artery (CA).
(§1) Antibody treatment continued twice weekly for the duration of the study. A t weekly intervals, mice were administered 150 mg/kg luciferin intraperitoneally (i.p) and imaged using the Xenogen IVIS Bioluminescence Imaging System, and tumour burden was quantitated using Living Image software (PerkinElmer, MA, USA). At the end of each study, organs were dissected upon culling animals and BLI imaged ex vivo for analysis of tumour metastasis.

[2] = system: MDA-MB-231 human breast cancer cells; experiment: MDA-MB-231 breast cancer model in NSG mice (BLI); format: in vivo; conditions: vs AbA33, p>0.05
Protocol: MDA-MB-231: 5-week old NOD/SCiD/gamma (NSG) immunocompromised mice were subcutaneously (s.c) administered two 30 mg/kg doses of anti-Grem1 antibody UCB6114 or IgG control, AbA33, the week prior to tumour cell inoculation. 1×10^5 luciferase expressing MDA-MB-231 human breast cancer cells were injected systemically via the CA.
as §1, with “Treatment” for “Antibody treatment”, “At” for “A t”, “software. The study ended on day 13 and day 22 post-tumour cell injection for” for “software (PerkinElmer, MA, USA). At”, “PyMT-B01 and MDA-MB-231 models respectively, according to animal ethics requirements. Organs” for “end of each study, organs”

MDA-MB-231-TXSA cells = experiment: Proliferation assay of MDA-MB-231-TXSA cells in hypoxia (luciferase); format: cell-based, human; conditions: rhGrem1 0-1000 ng/ml
Protocol: Luciferase expressing MDA-MB-231-TXSA cells were seeded in 96-well microtiter plates (1×10^4 cells/well). Cells were cultured either under normoxic or hypoxic conditions and allowed to adhere overnight. Cells were then serum starved for 6 hrs before treatment with increasing concentrations of rhGrem1 protein (0-1000 ng/ml). At 24 and 48 hr time points, luciferase expression was evaluated and used as a surrogate measure of cell number. Briefly, cells were washed in 1×PBS, and subsequently lysed in cell culture lysis buffer (Promega). Luciferase Assay Reagent (5 mM MgCl2, 30 mM HEPES, 150 μM ATP, […] Coenzyme A and 150 μg/mL D-luciferin (Biosynth AG, Staad, Switzerland)) was added to cell lysates, and luminescence was quantified immediately using a luminometer plate reader (Wallac 3000).

Row | Molecule | Whole animal tumour burden (BLI) ([1]; 30 mg/kg s.c. twice weekly) | Hindlimb tumour burden (ex vivo BLI) [1] | Liver tumour burden (ex vivo BLI) [1] | Lung tumour burden (ex vivo BLI) [1] | Mean tumour burden (BLI) ([2]; day 22) | Mean tumour burden for lung metastasis (ex vivo BLI) [2] | Maximal increase in MDA-MB-231-TXSA proliferation, hypoxic compared to normoxic conditions (MDA-MB-231-TXSA cells; 24 hr) | Maximal increase in MDA-MB-231-TXSA proliferation, hypoxic compared to normoxic conditions (MDA-MB-231-TXSA cells; 48 hr)
1 | UCB6114: novel anti-Grem1 neutralising monoclonal antibody | significant reduction | downward trend | significant reduction | downward trend | lower | reduction in mean tumour burden | – | –
2 | rhGrem1: rhGrem1 protein used to stimulate breast cancer cells (protein) KKKGSQGAIPPPDKAQHNDSEQTQSPQQPGSRNRGRGQGRGTAMPGEEVLESSQEALHVTERKYLKRDWCKTQPLKQTIHEEGCNSRTIINRFCYGQCNSFYIPRHIRKEEGSFQSCSFCKPKKFTTMMVTLNCPELQPPTKKKRVTRVKQCRCISIDLD | – | – | – | – | – | – | 1.5 fold | 1.7 fold
